Data published in PubChem BioAssay (NCI).
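Method: 48-hour compound exposure of cells in 96-well plates, five concentrations, linear interpolation of endpoints. GI50: concentration for 50% inhibition of growth. At the TGI there is no net growth.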

What was measured:
Assay in all cases: NCI-60 cell line screen, 48 h
MDA-MB-468 breast = system: MDA-MB-468 breast
KM12 colon = system: KM12 colon
LOX IMVI melanoma = system: LOX IMVI melanoma
SK-MEL-28 melanoma = system: SK-MEL-28 melanoma
TK-10 renal = system: TK-10 renal
RXF 393 renal = system: RXF 393 renal
SN12C renal = system: SN12C renal
786-0 renal = system: 786-0 renal
NCI-H226 lung = system: NCI-H226 lung
UACC-257 melanoma = system: UACC-257 melanoma
SK-OV-3 ovarian = system: SK-OV-3 ovarian
HOP-62 NSCLC = system: HOP-62 NSCLC
SF-268 CNS = system: SF-268 CNS
HCC-2998 colon = system: HCC-2998 colon
CAKI-1 renal = system: CAKI-1 renal
MDA-MB-435 = system: MDA-MB-435
OVCAR-3 ovarian = system: OVCAR-3 ovarian
UACC-62 melanoma = system: UACC-62 melanoma
SNB-75 CNS = system: SNB-75 CNS
HL-60(TB) leukemia = system: HL-60(TB) leukemia
SF-295 CNS = system: SF-295 CNS
SF-539 CNS = system: SF-539 CNS
UO-31 renal = system: UO-31 renal
OVCAR-8 ovarian = system: OVCAR-8 ovarian
ACHN renal = system: ACHN renal
NCI-H23 lung = system: NCI-H23 lung
NCI/ADR-RES ovarian = system: NCI/ADR-RES ovarian
DU-145 prostate = system: DU-145 prostate
PC-3 prostate = system: PC-3 prostate
NCI-H522 lung = system: NCI-H522 lung
SK-MEL-5 melanoma = system: SK-MEL-5 melanoma
OVCAR-5 ovarian = system: OVCAR-5 ovarian
SK-MEL-2 melanoma = system: SK-MEL-2 melanoma
MDA-MB-231 breast = system: MDA-MB-231 breast
HOP-92 NSCLC = system: HOP-92 NSCLC
BT-549 breast = system: BT-549 breast
EKVX NSCLC = system: EKVX NSCLC
A498 renal = system: A498 renal
HT29 colon = system: HT29 colon
SNB-19 CNS = system: SNB-19 CNS
COLO 205 colon = system: COLO 205 colon
CCRF-CEM leukemia = system: CCRF-CEM leukemia
HCT-15 colon = system: HCT-15 colon
OVCAR-4 ovarian = system: OVCAR-4 ovarian
HS 578T breast = system: HS 578T breast
IGROV1 ovarian = system: IGROV1 ovarian
MALME-3M melanoma = system: MALME-3M melanoma

Molecule `C=C(C)[C@@H]1CC[C@]2(c3ncc(C)o3)CC[C@]3(C)[C@H](CC[C@@H]4[C@@](C)(CCC#N)[C@H](C(=C)C)CC[C@]43C)[C@@H]12` has a GI50 (MDA-MB-468 breast) of 3 µM and a TGI (MDA-MB-468 breast) of 12.9 µM.

Work on `CC(C)NCCCNC1=C(Cl)C(=O)c2ccccc2C1=O` yielded a GI50 (MDA-MB-468 breast) of 2.85 µM and a TGI (MDA-MB-468 breast) of 8.78 µM.

Molecule `CCCN(CCC)c1ccc(C=O)c(OC)c1` has a GI50 (MDA-MB-468 breast) of 6.22 µM and a TGI (MDA-MB-468 breast) of 63 µM.

`Cc1ccc2nc(NC(=O)CSC(=S)N3CCN(Cc4ccccc4)CC3)sc2c1` showed a GI50 (MDA-MB-468 breast) greater than 100 µM and a TGI (MDA-MB-468 breast) greater than 100 µM.

`CC(C)(C)c1ccc(NC(=O)c2cc(=O)c3ccccc3[nH]2)c(C(C)(C)C)c1O` was tested, and the GI50 (MDA-MB-468 breast) was 7.87 µM and the TGI (MDA-MB-468 breast) was 21.9 µM.

In the case of `Cn1cc(/C=N/Nc2ccnc3cc(Cl)ccc23)c2ccccc21`, the GI50 (KM12 colon) is reported as 1.65 µM, the TGI (KM12 colon) is reported as 3.15 µM and the GI50 (LOX IMVI melanoma) is reported as 0.175 µM. The TGI (LOX IMVI melanoma) was 0.323 µM, the GI50 (SK-MEL-28 melanoma) was 1.7 µM and the TGI (SK-MEL-28 melanoma) was 3.09 µM. It also gave a GI50 (TK-10 renal) of 2.52 µM, a TGI (TK-10 renal) of 4.04 µM and a GI50 (RXF 393 renal) of 1.53 µM. For the same molecule, the TGI (RXF 393 renal) was 3 µM, the GI50 (SN12C renal) was 1.52 µM and the TGI (SN12C renal) was 2.92 µM. The GI50 (786-0 renal) was 0.274 µM, the TGI (786-0 renal) was 0.717 µM and the GI50 (NCI-H226 lung) was 1.5 µM. It also gave a TGI (NCI-H226 lung) of 3.25 µM, a GI50 (UACC-257 melanoma) of 1.55 µM and a TGI (UACC-257 melanoma) of 2.97 µM. For the same molecule, the GI50 (SK-OV-3 ovarian) was 1.39 µM, the TGI (SK-OV-3 ovarian) was 2.9 µM and the GI50 (HOP-62 NSCLC) was 1.52 µM. The TGI (HOP-62 NSCLC) was 3.13 µM, the GI50 (SF-268 CNS) was 1.72 µM and the TGI (SF-268 CNS) was 3.59 µM. For the same molecule, the GI50 (HCC-2998 colon) was 0.669 µM, the TGI (HCC-2998 colon) was 1.95 µM and the GI50 (CAKI-1 renal) was 1.3 µM. For the same molecule, the TGI (CAKI-1 renal) was 2.65 µM, the GI50 (MDA-MB-435) was 0.609 µM and the TGI (MDA-MB-435) was 1.91 µM. It also gave a GI50 (OVCAR-3 ovarian) of 0.206 µM, a TGI (OVCAR-3 ovarian) of 0.468 µM and a GI50 (UACC-62 melanoma) of 1.54 µM. The TGI (UACC-62 melanoma) was 2.97 µM, the GI50 (SNB-75 CNS) was 0.639 µM and the TGI (SNB-75 CNS) was 2.18 µM. For the same molecule, the GI50 (HL-60(TB) leukemia) was 0.205 µM, the TGI (HL-60(TB) leukemia) was 0.466 µM and the GI50 (SF-295 CNS) was 1.23 µM. It also gave a TGI (SF-295 CNS) of 2.53 µM, a GI50 (SF-539 CNS) of 0.181 µM and a TGI (SF-539 CNS) of 0.342 µM. It also gave a GI50 (UO-31 renal) of 1.24 µM, a TGI (UO-31 renal) of 2.52 µM and a GI50 (OVCAR-8 ovarian) of 1.63 µM. The TGI (OVCAR-8 ovarian) was 3.29 µM, the GI50 (ACHN renal) was 1.37 µM and the TGI (ACHN renal) was 2.67 µM. The GI50 (NCI-H23 lung) was 1.21 µM, the TGI (NCI-H23 lung) was 2.52 µM and the GI50 (NCI/ADR-RES ovarian) was 1.04 µM. It also gave a TGI (NCI/ADR-RES ovarian) of 2.48 µM, a GI50 (DU-145 prostate) of 0.978 µM and a TGI (DU-145 prostate) of 2.4 µM. For the same molecule, the GI50 (PC-3 prostate) was 1.15 µM, the TGI (PC-3 prostate) was 2.67 µM and the GI50 (NCI-H522 lung) was 1.32 µM. For the same molecule, the TGI (NCI-H522 lung) was 2.75 µM, the GI50 (SK-MEL-5 melanoma) was 1.45 µM and the TGI (SK-MEL-5 melanoma) was 2.77 µM. It also gave a GI50 (OVCAR-5 ovarian) of 1.68 µM, a TGI (OVCAR-5 ovarian) of 3.06 µM and a GI50 (SK-MEL-2 melanoma) of 1.6 µM. For the same molecule, the TGI (SK-MEL-2 melanoma) was 3.04 µM, the GI50 (MDA-MB-231 breast) was 0.202 µM and the TGI (MDA-MB-231 breast) was 0.488 µM. The GI50 (HOP-92 NSCLC) was 1.42 µM, the TGI (HOP-92 NSCLC) was 3 µM and the GI50 (BT-549 breast) was 1.62 µM. The TGI (BT-549 breast) was 3.11 µM, the GI50 (EKVX NSCLC) was 1.26 µM and the TGI (EKVX NSCLC) was 2.58 µM. The GI50 (MDA-MB-468 breast) was 0.239 µM, the TGI (MDA-MB-468 breast) was 0.563 µM and the GI50 (A498 renal) was 1.97 µM. For the same molecule, the TGI (A498 renal) was 3.5 µM, the GI50 (HT29 colon) was 0.185 µM and the TGI (HT29 colon) was 0.338 µM. The GI50 (SNB-19 CNS) was 1.05 µM, the TGI (SNB-19 CNS) was 2.49 µM and the GI50 (COLO 205 colon) was 1.21 µM. For the same molecule, the TGI (COLO 205 colon) was 2.66 µM, the GI50 (CCRF-CEM leukemia) was 0.281 µM and the TGI (CCRF-CEM leukemia) was 0.799 µM. The GI50 (HCT-15 colon) was 0.293 µM, the TGI (HCT-15 colon) was 0.823 µM and the GI50 (OVCAR-4 ovarian) was 0.531 µM. It also gave a TGI (OVCAR-4 ovarian) of 1.2 µM, a GI50 (HS 578T breast) of 1.48 µM and a TGI (HS 578T breast) of 3.49 µM. The GI50 (IGROV1 ovarian) was 1.41 µM, the TGI (IGROV1 ovarian) was 2.82 µM and the GI50 (MALME-3M melanoma) was 1.58 µM. The TGI (MALME-3M melanoma) was 3.02 µM.
